Laboratory results reported in US20210032257A1, “(E)-1-(4-(DIMETHYLAMINO)BUT-2-ENOYL)PYRROLIDIN-3-YL 4-((3-ISOPROPYL-5-METHYLPYRAZOLO[1,5-A]PYRIMIDIN-7-YL)AMINO)PIPERIDINE-1-CARBOXYLATE FOR INHIBITING CDK7” (Eli Lilly and Company, priority 2017, published 2021).

Legend:
Experiment in all cases: Biomarker study proliferation (CellTiter-Glo)
Assay type in all cases: cell-based
SNU1196 = tested on: SNU1196
Outline: (§1)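 Seeding density 5000 cells/well; overnight recovery; compound 10-pt, 1:3; 7 d, 37 °C, 5% CO2; CellTiter-Glo, 15 min RT; luminescence. Ctrl: staurosporine 5 μM final.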

HCT8 = tested on: HCT8
Outline: as §1

CT26 = tested on: CT26
Outline: as §1

MX1 = tested on: MX1
Outline: as §1

OZ = tested on: OZ
Outline: as §1

SNU423 = tested on: SNU423
Outline: as §1

SW837 = tested on: SW837
Outline: as §1

JHH7 = tested on: JHH7
Outline: as §1

HT = tested on: HT
Outline: as §1

NCIH2122 = tested on: NCIH2122
Outline: as §1

HS294T = tested on: HS294T
Outline: as §1

A2780 = tested on: A2780
Outline: as §1

KYSE70 = tested on: KYSE70
Outline: as §1

NCIH1734 = tested on: NCIH1734
Outline: as §1

AN3CA = tested on: AN3CA
Outline: as §1

M14 = tested on: M14
Outline: as §1

SNU398 = tested on: SNU398
Outline: as §1

DMS114 = tested on: DMS114
Outline: as §1

LNCAP = tested on: LNCAP
Outline: as §1

[1] = 168 h, read-out: Anti-proliferation effect IC50

Cc1cc(NC2CCN(C(=O)O[C@H]3CCN(C(=O)/C=C/CN(C)C)C3)CC2)n2ncc(C(C)C)c2n1 [Example 1, [(3S)-1-[(E)-4-(dimethylamino)but-2-enoyl]pyrrolidin-3-yl] 4-[(3-isopropyl-5-methyl-pyrazolo[1,5-a]pyrimidin-7-yl)amino]piperidine-1-carboxylate]
IC50 (SNU1196; [1]): 0.043 µM | Anti-proliferation effect % Inh. (SNU1196; SNU1196, BILIARY, 7 days): 68% | Anti-proliferation effect Outcome (SNU1196; SNU1196, BILIARY, 7 days): Cytostatic (cytostatic (IC50<1 μM and % inhibition <70%)) | Anti-proliferation effect % Inh. (HCT8; HCT8, INTESTINE, 7 days): 3% | Anti-proliferation effect Outcome (HCT8; HCT8, INTESTINE, 7 days): Cytostatic (cytostatic (IC50<1 μM and % inhibition <70%)) | IC50 (HCT8; Homo sapiens, HCT-8, 168 h, read-out: Anti-proliferation effect IC50): 0.981 µM | Anti-proliferation effect % Inh. (CT26; CT26, INTESTINE, 7 days): −47% | Anti-proliferation effect Outcome (CT26; CT26, INTESTINE, 7 days): Insensitive (insensitive (IC50≥1 μM)) | IC50 (CT26; Mus musculus, CT26, 168 h, read-out: Anti-proliferation effect IC50): > 10 µM | IC50 (MX1; Homo sapiens, MX1, 168 h, read-out: Anti-proliferation effect IC50): 0.045 µM | Anti-proliferation effect % Inh. (MX1; MX1, BREAST, 7 days): 72% | Anti-proliferation effect Outcome (MX1; MX1, BREAST, 7 days): Cytotoxic (cytotoxic (IC50<1 μM and % inhibition ≥70%)) | IC50 (OZ; [1]): 0.05 µM | Anti-proliferation effect % Inh. (OZ; OZ, LIVER, 7 days): 77% | Anti-proliferation effect Outcome (OZ; OZ, LIVER, 7 days): Cytotoxic (cytotoxic (IC50<1 μM and % inhibition ≥70%)) | IC50 (SNU423; Homo sapiens, SNU-423, 168 h, read-out: Anti-proliferation effect IC50): > 10 µM | Anti-proliferation effect % Inh. (SNU423; SNU423, LIVER, 7 days): 40% | Anti-proliferation effect Outcome (SNU423; SNU423, LIVER, 7 days): Insensitive (insensitive (IC50≥1 μM)) | IC50 (SW837; Homo sapiens, SW837, 168 h, read-out: Anti-proliferation effect IC50): 0.068 µM | Anti-proliferation effect % Inh. (SW837; SW837, INTESTINE, 7 days): 55% | Anti-proliferation effect Outcome (SW837; SW837, INTESTINE, 7 days): Cytostatic (cytostatic (IC50<1 μM and % inhibition <70%)) | IC50 (JHH7; JHH7, 168 h, read-out: Anti-proliferation effect IC50): 0.027 µM | Anti-proliferation effect % Inh. (JHH7; JHH7, LIVER, 7 days): 88% | Anti-proliferation effect Outcome (JHH7; JHH7, LIVER, 7 days): Cytotoxic (cytotoxic (IC50<1 μM and % inhibition ≥70%)) | Anti-proliferation effect % Inh. (HT; BLOOD, 7 days): 64% | Anti-proliferation effect Outcome (HT; BLOOD, 7 days): Cytostatic (cytostatic (IC50<1 μM and % inhibition <70%)) | IC50 (HT; Homo sapiens, 168 h, read-out: Anti-proliferation effect IC50): 0.131 µM | IC50 (NCIH2122; Homo sapiens, NCI-H2122, 168 h, read-out: Anti-proliferation effect IC50): 0.078 µM | Anti-proliferation effect % Inh. (NCIH2122; NCIH2122, LUNG, 7 days): 85% | Anti-proliferation effect Outcome (NCIH2122; NCIH2122, LUNG, 7 days): Cytotoxic (cytotoxic (IC50<1 μM and % inhibition ≥70%)) | Anti-proliferation effect % Inh. (HS294T; HS294T, SKIN, 7 days): 84% | Anti-proliferation effect Outcome (HS294T; HS294T, SKIN, 7 days): Cytotoxic (cytotoxic (IC50<1 μM and % inhibition ≥70%)) | IC50 (HS294T; Homo sapiens, Hs 294T, 168 h, read-out: Anti-proliferation effect IC50): 0.02 µM | Anti-proliferation effect % Inh. (A2780; A2780, OVARY, 7 days): 74% | Anti-proliferation effect Outcome (A2780; A2780, OVARY, 7 days): Cytotoxic (cytotoxic (IC50<1 μM and % inhibition ≥70%)) | IC50 (A2780; Homo sapiens, A2780, 168 h, read-out: Anti-proliferation effect IC50): 0.052 µM | IC50 (KYSE70; Homo sapiens, KYSE-70, 168 h, read-out: Anti-proliferation effect IC50): 0.126 µM | Anti-proliferation effect % Inh. (KYSE70; KYSE70, OESOPHAGUS, 7 days): 70% | Anti-proliferation effect Outcome (KYSE70; KYSE70, OESOPHAGUS, 7 days): Cytotoxic (cytotoxic (IC50<1 μM and % inhibition ≥70%)) | IC50 (NCIH1734; Homo sapiens, NCI-H1734, 168 h, read-out: Anti-proliferation effect IC50): 0.024 µM | Anti-proliferation effect % Inh. (NCIH1734; NCIH1734, LUNG, 7 days): 76% | Anti-proliferation effect Outcome (NCIH1734; NCIH1734, LUNG, 7 days): Cytotoxic (cytotoxic (IC50<1 μM and % inhibition ≥70%)) | Anti-proliferation effect % Inh. (AN3CA; AN3CA, ENDOMETRIUM, 7 days): 67% | Anti-proliferation effect Outcome (AN3CA; AN3CA, ENDOMETRIUM, 7 days): Cytostatic (cytostatic (IC50<1 μM and % inhibition <70%)) | IC50 (AN3CA; Homo sapiens, AN3-CA, 168 h, read-out: Anti-proliferation effect IC50): 0.05 µM | IC50 (M14; Homo sapiens, M14, 168 h, read-out: Anti-proliferation effect IC50): 0.032 µM | Anti-proliferation effect % Inh. (M14; M14, SKIN, 7 days): 85% | Anti-proliferation effect Outcome (M14; M14, SKIN, 7 days): Cytotoxic (cytotoxic (IC50<1 μM and % inhibition ≥70%)) | IC50 (SNU398; Homo sapiens, SNU-398, 168 h, read-out: Anti-proliferation effect IC50): 0.021 µM | Anti-proliferation effect % Inh. (SNU398; SNU398, LIVER, 7 days): 85% | Anti-proliferation effect Outcome (SNU398; SNU398, LIVER, 7 days): Cytotoxic (cytotoxic (IC50<1 μM and % inhibition ≥70%)) | Anti-proliferation effect % Inh. (DMS114; DMS114, LUNG, 7 days): 65% | Anti-proliferation effect Outcome (DMS114; DMS114, LUNG, 7 days): Cytostatic (cytostatic (IC50<1 μM and % inhibition <70%)) | IC50 (DMS114; Homo sapiens, DMS-114, 168 h, read-out: Anti-proliferation effect IC50): 0.014 µM | IC50 (LNCAP; Homo sapiens, LNCaP, 168 h, read-out: Anti-proliferation effect IC50): 0.059 µM | Anti-proliferation effect % Inh. (LNCAP; LNCAP, PROSTATE, 7 days): 74% | Anti-proliferation effect Outcome (LNCAP; LNCAP, PROSTATE, 7 days): Cytotoxic (cytotoxic (IC50<1 μM and % inhibition ≥70%))
